Assay results: patent US10538555B2, “Macrocyclic inhibitors of the PD-1/PD-L1 and CD80(B7-1)/PD-L1 protein/protein interactions” (BRISTOL-MYERS SQUIBB COMPANY, priority 2014, dated 2020)
Like-named read-outs stand apart in the source and are kept apart here. *1 amine or outer side, *2 acyl side, *3 side chain or, on linkers, in order; H or OH if unused. Where a SMILES comes first, the peptide text is derived from it. Bridges are numbered along the chain shown (N, C = ends). [ ]: non-standard residue; d: D form. ξ: configuration not given here. Trp(1-CH2COOH) = N[C@@H](Cc1cn(CC(=O)O)c2ccccc12)C(=O)O; Phe(3,4,5-F3) = N[C@@H](Cc1cc(F)c(F)c(F)c1)C(=O)O; NMePhe(4-F) = CN[C@@H](Cc1ccc(F)cc1)C(=O)O; Phe(3-Cl) = N[C@@H](Cc1cccc(Cl)c1)C(=O)O; Phe(4-F) = N[C@@H](Cc1ccc(F)cc1)C(=O)O; d(cisHyp) = O=C(O)[C@H]1C[C@@H](O)CN1; NMeY = CN[C@@H](Cc1ccc(O)cc1)C(=O)O; Hyp = O=C(O)[C@@H]1C[C@@H](O)CN1; NMeF = CN[C@@H](Cc1ccccc1)C(=O)O; X1 = O=C([C@H]1COCCN1[*:1])[*:2]; dPip(4-aza) = O=C(O)[C@H]1CNCCN1; NMehSer = CN[C@@H](CCO)C(=O)O; NMeNle = CCCC[C@H](NC)C(=O)O; Pip = O=C(O)[C@@H]1CCCCN1; dPip = O=C(O)[C@H]1CCCCN1; hSer = N[C@@H](CCO)C(=O)O; NMeA = CN[C@@H](C)C(=O)O; Orn = NCCC[C@H](N)C(=O)O; Dab = NCC[C@H](N)C(=O)O; Dap = NC[C@H](N)C(=O)O; ξC = NC(CS)C(=O)O

Target: T1, Human PD-L1/PD-1 (Homo sapiens, UniProt Q9NZQ7)
T1 construct: TVMV protease cleavage site (C); made in house; host or cells: HEK293T cells
T1 sequence (Q9NZQ7 with tags, fused parts or gaps): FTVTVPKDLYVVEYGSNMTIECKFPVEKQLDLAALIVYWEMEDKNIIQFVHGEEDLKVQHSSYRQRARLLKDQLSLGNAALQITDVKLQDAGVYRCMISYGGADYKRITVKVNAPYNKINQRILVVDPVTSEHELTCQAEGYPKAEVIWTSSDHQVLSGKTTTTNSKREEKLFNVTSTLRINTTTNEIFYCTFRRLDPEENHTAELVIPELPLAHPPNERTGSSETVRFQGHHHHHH
Assay: HTRF Human PD-L1/PD-1 binding assay (PD-1-Ig/PD-L1-His)
Details: PD-L1-His 10 nM, PD-1-Ig 20 nM
How it was run: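 Competition of macrocyclic peptides for PD-1/PD-L1 binding measured by HTRF in dPBS containing 0.1% BSA and 0.05% Tween-20. Compound and PD-L1-His (10 nM final) incubated 15 min before PD-1-Ig (20 nM final) and a further 15 min.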

[1] = class symbol, read-out: HTRF Human PD-L1/PD-1 Binding Assay IC50 Range

## CCCC[C@H]1C(=O)N(C)CC(=O)N[C@@H](CC(N)=O)C(=O)N[C@@H](C(C)C)C(=O)N(C)[C@@H](Cc2ccccc2)C(=O)N[C@@H](Cc2ccc(O)cc2)C(=O)N(C)CC(=O)N[C@@H](Cc2c[nH]c3ccccc23)C(=O)N[C@@H](Cc2ccc(O)cc2)C(=O)N[C@@H](CCCN)C(=O)N[C@H](C(=O)NCC(N)=O)CSCC(=O)N[C@@H](Cc2ccccc2)C(=O)N(C)[C@@H](Cc2ccncc2)C(=O)N1C (single isomer, unassigned) [Example 3638-B]
[1]
  IC50: 10 to 99.9 nM

## CCCC[C@H]1C(=O)N(C)[C@@H](CCCC)C(=O)N[C@@H](C)C(=O)N[C@H](C(=O)NCC(N)=O)CSCC(=O)N[C@@H](Cc2ccc(O)cc2)C(=O)N(C)[C@@H](C)C(=O)N[C@@H](CC(=O)O)C(=O)N2CCC[C@H]2C(=O)N[C@@H](Cc2cnc[nH]2)C(=O)N[C@@H](CCCCN)C(=O)N2C[C@H](O)C[C@H]2C(=O)N[C@@H](Cc2c[nH]c3ccccc23)C(=O)N[C@@H](CO)C(=O)N[C@@H](Cc2c[nH]c3ccccc23)C(=O)N1C [Example 1247] ({CH2CO}-Y[NMeA]DPHK[Hyp]WSW[NMeNle][NMeNle]ACG-NH2; thioether N-14)
[1]
  IC50: 10 to 99.9 nM

## CCCC[C@H]1C(=O)N2CCC[C@@H]2C(=O)N[C@@H](CC(N)=O)C(=O)N[C@@H](C(C)C)C(=O)N(C)[C@@H](Cc2ccccc2)C(=O)N[C@@H](CCC(=O)O)C(=O)N2CCCC[C@@H]2C(=O)N[C@@H](Cc2c[nH]c3ccccc23)C(=O)N[C@@H](Cc2ccc(O)cc2)C(=O)N[C@@H](CC(C)C)C(=O)N[C@H](C(=O)NCC(N)=O)CSCC(=O)N[C@@H](Cc2cc(F)c(F)c(F)c2)C(=O)N(C)[C@@H](Cc2ccc(F)cc2)C(=O)N1C [Example 10579] ({CH2CO}-[Phe(3,4,5-F3)][NMePhe(4-F)][NMeNle][dP]NV[NMeF]E[dPip]WYLCG-NH2; thioether N-13)
[1]
  IC50: 1 to 9.9 nM

## CCCC[C@H]1C(=O)N(C)[C@@H](CCCC)C(=O)N[C@@H](CCC(=O)O)C(=O)NC(C(=O)NCC(N)=O)CSCC(=O)N[C@@H](Cc2ccc(O)cc2)C(=O)N(C)[C@@H](C)C(=O)N[C@@H](CC(N)=O)C(=O)N2CCC[C@H]2C(=O)N[C@@H](CC(N)=O)C(=O)N[C@@H](CC(C)C)C(=O)N2CCC[C@H]2C(=O)N[C@@H](Cc2c[nH]c3ccccc23)C(=O)N[C@@H](CN)C(=O)N[C@@H](Cc2c[nH]c3ccccc23)C(=O)N1C (stereo partly drawn) [Example 9176] ({CH2CO}-Y[NMeA]NPNLPW[Dap]W[NMeNle][NMeNle]E[ξC]G-NH2; thioether N-14)
[1]
  IC50: 100 to 990 nM

## CCCC[C@H]1C(=O)N2C[C@H](O)C[C@@H]2C(=O)N[C@@H](CC(=O)O)C(=O)N[C@@H](C(C)C)C(=O)N(C)[C@@H](Cc2ccccc2)C(=O)N[C@@H](CCC(=O)O)C(=O)N2CCOC[C@@H]2C(=O)N[C@@H](Cc2c[nH]c3ccccc23)C(=O)N[C@@H](Cc2ccc(O)cc2)C(=O)N[C@@H](CC(C)C)C(=O)N[C@H](C(=O)NCC(N)=O)CSCC(=O)N[C@@H](Cc2cc(F)c(F)c(F)c2)C(=O)N(C)[C@@H](Cc2ccc(F)cc2)C(=O)N1C [Example 10594] ({CH2CO}-[Phe(3,4,5-F3)][NMePhe(4-F)][NMeNle][d(cisHyp)]DV[NMeF]E[X1]WYLCG-NH2; thioether N-13)
[1]
  IC50: 1 to 9.9 nM

## CCCC[C@H]1C(=O)N2C[C@H](O)C[C@@H]2C(=O)N[C@@H](CC(=O)O)C(=O)N[C@@H](C(C)C)C(=O)N(C)[C@@H](Cc2ccccc2)C(=O)N[C@@H](CCCN)C(=O)N2CCOC[C@@H]2C(=O)N[C@@H](Cc2c[nH]c3ccccc23)C(=O)N[C@@H](Cc2ccc(O)cc2)C(=O)N[C@@H](CCO)C(=O)N[C@H](C(=O)NCC(N)=O)CSCC(=O)N[C@@H](Cc2cc(F)c(F)c(F)c2)C(=O)N(C)[C@@H](Cc2ccccc2)C(=O)N1C [Example 10158] ({CH2CO}-[Phe(3,4,5-F3)][NMeF][NMeNle][d(cisHyp)]DV[NMeF][Orn][X1]WY[hSer]CG-NH2; thioether N-13)
[1]
  IC50: 1 to 9.9 nM

## CCCC[C@H]1C(=O)N(C)[C@@H](CCCC)C(=O)N[C@@H](CCC(=O)O)C(=O)N[C@H](C(=O)NCC(N)=O)CSCC(=O)N[C@@H](Cc2ccc(OC)cc2)C(=O)N(C)[C@@H](C)C(=O)N[C@@H](CCN)C(=O)N2CCC[C@H]2C(=O)N[C@@H](Cc2cnc[nH]2)C(=O)N[C@@H](CCCCN)C(=O)N2C[C@H](O)C[C@H]2C(=O)N[C@@H](Cc2c[nH]c3ccccc23)C(=O)N[C@@H](CC(=O)O)C(=O)N[C@@H](Cc2c[nH]c3ccccc23)C(=O)N1C [Example 7126] ({CH2CO}-Y(Me)[NMeA][Dab]PHK[Hyp]WDW[NMeNle][NMeNle]ECG-NH2; thioether N-14)
[1]
  IC50: 1000 to 10000 nM

## CCCC[C@H]1C(=O)N(C)[C@@H](CCCC)C(=O)N[C@@H](CCC(=O)O)C(=O)N[C@H](C(=O)NCC(N)=O)CSCC(=O)N[C@@H](Cc2ccc(OC)cc2)C(=O)N(C)[C@@H](C)C(=O)N[C@@H](CCN)C(=O)N2CCC[C@H]2C(=O)N[C@@H](Cc2cnc[nH]2)C(=O)N[C@@H](CCCCN)C(=O)N2C[C@H](O)C[C@H]2C(=O)N[C@@H](Cc2c[nH]c3ccccc23)C(=O)N[C@@H](CCN)C(=O)N[C@@H](Cc2c[nH]c3ccccc23)C(=O)N1C [Example 7120] ({CH2CO}-Y(Me)[NMeA][Dab]PHK[Hyp]W[Dab]W[NMeNle][NMeNle]ECG-NH2; thioether N-14)
[1]
  IC50: 1 to 9.9 nM

## CCCC[C@H]1C(=O)N(C)[C@@H](CCCC)C(=O)N[C@@H](CO)C(=O)N[C@H](C(=O)NCC(N)=O)CSCC(=O)N[C@@H](Cc2ccc(OC)cc2)C(=O)N(C)[C@@H](C)C(=O)N[C@@H](CC(N)=O)C(=O)N2CCC[C@H]2C(=O)N[C@@H](Cc2c[nH]cn2)C(=O)N[C@@H](CCC(N)=O)C(=O)N2C[C@H](O)C[C@H]2C(=O)N[C@@H](Cc2c[nH]c3ccccc23)C(=O)N[C@@H](CO)C(=O)N[C@@H](Cc2cn(CC(=O)O)c3ccccc23)C(=O)N1C [Example 7143] ({CH2CO}-Y(Me)[NMeA]NPHQ[Hyp]WS[Trp(1-CH2COOH)][NMeNle][NMeNle]SCG-NH2; thioether N-14)
[1]
  IC50: 1 to 9.9 nM

## CCCC[C@H]1C(=O)N2C[C@H](O)C[C@@H]2C(=O)N[C@@H](CC(=O)O)C(=O)N[C@@H](C(C)C)C(=O)N(C)[C@@H](Cc2ccccc2)C(=O)N[C@@H](CC(=O)O)C(=O)N2C[C@H](O)C[C@@H]2C(=O)N[C@@H](Cc2c[nH]c3ccccc23)C(=O)N[C@@H](Cc2ccc(O)cc2)C(=O)N[C@@H](CCC(=O)O)C(=O)N[C@H](C(=O)NCC(N)=O)CSCC(=O)N[C@@H](Cc2cc(F)c(F)c(F)c2)C(=O)N(C)[C@@H](Cc2ccccc2)C(=O)N1C [Example 9349] ({CH2CO}-[Phe(3,4,5-F3)][NMeF][NMeNle][d(cisHyp)]DV[NMeF]D[d(cisHyp)]WYECG-NH2; thioether N-13)
[1]
  IC50: 10 to 99.9 nM

## CCCC[C@H]1C(=O)N(C)[C@@H](CCCC)C(=O)N[C@@H](CCC(=O)O)C(=O)NC(C(=O)NCC(N)=O)CSCC(=O)N[C@@H](Cc2ccc(O)cc2)C(=O)N(C)[C@@H](C)C(=O)N[C@@H](CC(N)=O)C(=O)N2CCC[C@H]2C(=O)N[C@@H](Cc2c[nH]cn2)C(=O)N[C@@H](CC(N)=O)C(=O)N2C[C@H](O)C[C@H]2C(=O)N[C@@H](Cc2c[nH]c3ccccc23)C(=O)N[C@@H](CC(=O)O)C(=O)N[C@@H](Cc2c[nH]c3ccccc23)C(=O)N1C (stereo partly drawn) [Example 9175] ({CH2CO}-Y[NMeA]NPHN[Hyp]WDW[NMeNle][NMeNle]E[ξC]G-NH2; thioether N-14)
read-out: HTRF Human PD-L1/PD-1 Binding Assay IC50
  IC50: 364 nM

## CCCC[C@H]1C(=O)N2C[C@H](O)C[C@@H]2C(=O)N[C@@H](CC(=O)O)C(=O)N[C@@H](C(C)C)C(=O)N(C)[C@@H](Cc2ccccc2)C(=O)N[C@@H](CCC(=O)O)C(=O)N2CCNC[C@@H]2C(=O)N[C@@H](Cc2c[nH]c3ccccc23)C(=O)N[C@@H](Cc2ccc(O)cc2)C(=O)N[C@@H](CCCN)C(=O)N[C@H](C(=O)NCC(N)=O)CSCC(=O)N[C@@H](Cc2cccc(Cl)c2)C(=O)N(C)[C@@H](Cc2ccccc2)C(=O)N1C [Example 3647] ({CH2CO}-[Phe(3-Cl)][NMeF][NMeNle][d(cisHyp)]DV[NMeF]E[dPip(4-aza)]WY[Orn]CG-NH2; thioether N-13)
[1]
  IC50: 10 to 99.9 nM

## CCCC[C@H]1C(=O)N2CCC[C@@H]2C(=O)N[C@@H](CC(=O)O)C(=O)N[C@@H](C(C)C)C(=O)N(C)[C@@H](CCOC)C(=O)N[C@@H](CCC(N)=O)C(=O)N2CCCC[C@@H]2C(=O)N[C@@H](Cc2c[nH]c3ccccc23)C(=O)N[C@@H](Cc2ccc(O)cc2)C(=O)N[C@@H](CC(C)C)C(=O)N[C@H](C(=O)NCC(N)=O)CSCC(=O)N[C@@H](Cc2ccc(F)cc2)C(=O)N(C)[C@@H](Cc2ccccc2)C(=O)N1C [Example 9224] ({CH2CO}-[Phe(4-F)][NMeF][NMeNle][dP]DV[NMehSer](Me)Q[dPip]WYLCG-NH2; thioether N-13)
[1]
  IC50: 100 to 990 nM

## CCCC[C@H]1C(=O)N2CCC[C@@H]2C(=O)N[C@@H](CC(=O)O)C(=O)N[C@@H](C(C)C)C(=O)N(C)[C@@H](Cc2ccccc2)C(=O)N[C@@H](CCC(=O)O)C(=O)N2C[C@H](O)C[C@@H]2C(=O)N[C@@H](Cc2c[nH]c3ccccc23)C(=O)N[C@@H](Cc2ccc(O)cc2)C(=O)N[C@@H](CCCN)C(=O)N[C@H](C(=O)NCC(N)=O)CSCC(=O)N[C@@H](Cc2cc(F)c(F)c(F)c2)C(=O)N(C)[C@@H](Cc2ccc(O)cc2)C(=O)N1C [Example 10632] ({CH2CO}-[Phe(3,4,5-F3)][NMeY][NMeNle][dP]DV[NMeF]E[d(cisHyp)]WY[Orn]CG-NH2; thioether N-13)
[1]
  IC50: 1 to 9.9 nM

## CCCC[C@H]1C(=O)N(C)[C@@H](CCCC)C(=O)N[C@@H](CN)C(=O)N[C@H](C(=O)NCC(N)=O)CSCC(=O)N[C@@H](Cc2ccc(O)cc2)C(=O)N2CCCC[C@H]2C(=O)N[C@@H](CC(N)=O)C(=O)N2CCC[C@H]2C(=O)N[C@@H](Cc2cnc[nH]2)C(=O)N[C@@H](CCC(N)=O)C(=O)N2C[C@H](O)C[C@H]2C(=O)N[C@@H](Cc2c[nH]c3ccccc23)C(=O)N[C@@H](CCN)C(=O)N[C@@H](Cc2cn(CC(=O)O)c3ccccc23)C(=O)N1C [Example 1298] ({CH2CO}-Y[Pip]NPHQ[Hyp]W[Dab][Trp(1-CH2COOH)][NMeNle][NMeNle][Dap]CG-NH2; thioether N-14)
[1]
  IC50: 1 to 9.9 nM
